# Assay results from patent US11697798B2, “Enhanced differentiation and maturation of pluripotent stem cell-derived myogenic cells” (Regents of the University of Minnesota, priority 2017, dated 2023).
# Tests used:
# Format in all cases: cell-based, human
# [1] = test system: myotubes derived from hESC-1, hiPSC-1 and hiPSC-2; assay: Small molecule library screening (Tocriscreen Stem Cell Toolbox), MHC/DAPI area ratio; settings: terminal differentiation
# Procedure: After 24 hours, cells were switched to MM with 1 μg/ml Doxycyline and incubated at 37° C. for 2 days. 1/10th of EBs were then plated on gelatin coated T-75 flasks in MM with 1 μg/ml dox and 5 ng/ml human basic fibroblast growth factor (bFGF). After 4 days, cells were dissociated with 0.25% trypsin-EDTA, FACS sorted for GFP to derive myogenic progenitors which were plated at a density of 2 million/T-75 flask in MM with 1 μg/ml dox and 5 ng/ml bFGF. Once the cells reached 90% confluency, myogenic progenitors were dissociated with 0.25% trypsin-EDTA and passaged at a ratio of 1:6 to 1:8. To induce terminal differentiation, myogenic progenitors at P3-4 were plated at a density of 75,000 cells/24-well plate and allowed to grow confluent for 3 days. The medium was then switched to low nutrient differentiation medium (DM) consisting of DMEM-KO supplemented with 20% KOSR, 1% NEAA, 1% glutamax and 1% penicillin-streptomycin and incubated for five days to derive myotubes. Transplantation Experiment
# Small molecule library screening was done using the tocriscreen stem cell toolbox kit (tocris) which consisted of 80 compounds. Myogenic progenitors at passage P3 or P4 were seeded at 12,000 cells/well in 96-well plates (triplicates) and incubated at 37° C. for 3 days to reach 100% confluency. After 3 days, the cells were switched to DM supplemented with 10 μM of the compounds from the library or with DMSO. Cells were incubated in this differentiation medium for 5 days to derive myotubes. Cells were then fixed with 4% PFA and stained for MHC and DAPI. The stained plates were imaged using cytation plate reader and 49 pictures were taken per well to cover most of the area. The images were stitched together and the ratio of area of MHC/DAPI staining was quantified using Image J and normalized to that of DMSO treated cells. […] Different combinations were made with selected compounds and their effect on differentiation was tested and quantified. […]
# [2] = test system: hiPS cell-derived myogenic progenitors; assay: Immunofluorescence staining for MHC and MYOG after terminal differentiation; settings: for Myogenin (MYOG) immunofluorescence: clustering of myogenic nuclei / Myosin heavy chain (MHC) immunofluorescence: fusion, myotube thickness: KOSR-based differentiation medium; for Myosin heavy chain (MHC) immunofluorescence: fusion, myotube thickness: versus untreated control
# Procedure: (§1) Human induced Pluripotent Stem Cells (hiPSC, PLZ) or Embryonic Stem Cells (hESC, H9) were transduced with the lentiviral constructs pSAM2-PAX7-ires-GFP and pFUGW-rtTA to generate doxycycline-inducible PAX7 (iPAX7) PS-cells as previously reported (Darabi, 2012). iPAX7-PS cells were cultured on matrigel-coated flasks using mTeSR1 medium (Stem Cell Technology). Cells were differentiated to myogenic progenitors as previously described (Darabi and Perlingeiro, 2016). Briefly, iPAX7-PS cells were detached with Accumax and 1×10^6 cells were plated in 6 cm non-adherent Petri dishes with mTeSR1 supplemented with 10 uM Y-27632 (ROCK inhibitor) and incubated at 37° C., 5% CO2 on a shaker at 60 RPM for 48 h. Then, medium was replaced with EB Myogenic (EBM) Medium supplemented with 10 uM […] (GSK3-β inhibitor) and 10 uM Y-27632. Three days later supplements were removed by changing to fresh medium. At day 7, EBs were plated on gelatin-coated flasks with EBM medium+10 ng/ml human basic FGF (bFGF) and three days later 1 ug/ml of doxycycline was added to the medium to induce PAX7 expression. Cells were harvested by trypsinization at day 14 and subsequently FACS sorted for GFP(+) expression. From this point, cells are considered as myogenic progenitors and cultured on gelatin-coated flasks using EBM medium+10 ng/ml bFGF+1 ug/ml Dox.
# (§2) For terminal differentiation, myogenic progenitors at P3-P5 were plated on gelatin-coated dishes with EBM medium+10 ng/ml bFGF+1 ug/ml Dox. Upon reaching 100% confluency, medium was removed and replaced with knockout serum replacement (KOSR) or horse serum based terminal differentiation medium (TDM) supplemented with 10 uM DAPT, 10 uM BMS-906024.5 days after terminal differentiation, cells were fixed or collected for RNA analysis.
# After 5 days of terminal differentiation, cells were washed with PBS and fixed with 4% PFA/PBS for 10 min. Then, cells were permeabilized with 0.3% Triton X-100/PBS for 15 min and blocked with 3% BSA/PBS for 20 min. Cells were incubated with a primary antibody that recognizes all MHC isoforms (MF-20, Developmental Studies Hybridoma Bank) overnight at 4° C. The next day, cells were incubated with an Alexa-555 secondary antibody supplemented with DAPI for 1 h at RT. Cells were analyzed by epifluorescence microscopy.
# [3] = test system: hES (H9) and iPS (PLZ) cell-derived myogenic progenitors; assay: RT-qPCR of myotubes differentiated from myogenic progenitors with gamma secretase inhibitors; settings: for mRNA expression level of MHC3 compared to non-treated cells / mRNA expression level of Myogenin compared to non-treated cells: 10 uM, KOSR- or horse serum-based media, 5 days at 37° C.
# Procedure: as §1, §2
# Differentiated myotubes (5d) were collected with TRIzol (Thermo Fisher Scientific) and RNA was purified using the Direct-zol RNA MiniPrep Plus (Zymo Research) following manufacturer's instructions. cDNA was obtained by RT-PCR using SuperScript VILO (Invitrogen) and qPCR was performed by using the Premix Ex Taq ROX plus (Takara) and TaMan probes (Thermo Fisher Scientific) specific to the genes of interest. qPCR was done with a QuantStudio 6 Flex Real-Time PCR System (Thermo Fisher Scientific). Data was normalized to GAPDH expression.
# [4] = test system: hiPS cell-derived myogenic progenitors; assay: Western blot for MHC8 protein in terminally differentiated myotubes; settings: horse serum-based differentiation medium, TUBB loading control
# Procedure: as §1, with “Dox. […]” for “Dox.”
# [5] = horse serum-based differentiation medium, hiPS
SMILES,myotube differentiation efficiency [1],Myogenin (MYOG) immunofluorescence: clustering of myogenic nuclei [2],"Myosin heavy chain (MHC) immunofluorescence: fusion, myotube thickness [2]",mRNA expression level of MHC3 compared to non-treated cells [3],mRNA expression level of Myogenin compared to non-treated cells [3],efficiency of differentiation by MHC and MYOG immunofluorescence ([2]; horse serum-based (HS) differentiation medium),neonatal Myosin Heavy Chain (MHC8) protein detection by Western blot [4],"expression level of CAPN3 compared to untreated control [3, 5] [fold]","expression level of embryonic myosin heavy chain (MHC3) [3, 5]","expression level of neonatal myosin heavy chain (MHC8) [3, 5]"
O=C(NOC[C@H](O)CO)c1ccc(F)c(F)c1Nc1ccc(I)cc1F [PD 0325901],promoted higher myotube differentiation efficiency,–,–,–,–,–,–,–,–,–
NC(=O)c1ccc(-c2nc(-c3ccc4c(c3)OCO4)c(-c3ccccn3)[nH]2)cc1 [SB 431542],promoted higher myotube differentiation efficiency,–,–,–,–,–,–,–,–,–
CN1C(=O)[C@@H](NC(=O)[C@H](CCC(F)(F)F)[C@H](CCC(F)(F)F)C(N)=O)N=C(c2ccccc2)c2ccccc21 [BMS-906024],–,induce clustering of the myogenic nuclei,improve the fusion of the nuclei to give rise to thick myotubes,increased mRNA expression levels,increased mRNA expression levels,–,–,–,–,–
CC(NC(=O)Cc1cc(F)cc(F)c1)C(=O)N[C@H](C(=O)OC(C)(C)C)c1ccccc1 (stereo partly shown) [DAPT],promoted higher myotube differentiation efficiency,induce clustering of the myogenic nuclei,improve the fusion of the nuclei to give rise to thick myotubes,increased mRNA expression levels,increased mRNA expression levels,improves the efficiency of the differentiation,can be detected only in the presence of DAPT,5,enhances the expression levels,more than 200 fold
